What was measured:
ptosis after reserpine = experiment: Test B: antagonism of ptosis observed an hour after intravenous injection of reserpine in mice; type: in vivo; conditions: Mus musculus, po, ptosis an hour after reserpine 2 mg/kg intravenous, read-out: Test B ED 50
Protocol: Test B: antagonism with respect to ptosis observed an hour after an intravenous injection (2 mg/kg) of reserpine in mice according to the procedure described by Gouret C. and Thomas J. in J. Pharmacol. (Paris), (1973), 4, 401.

[1] = system: generalized trembling caused by dl-5-hydroxytryptophane; experiment: Test A: potentiation in mice of generalized trembling caused by intraperitoneal injection of dl-5-hydroxytryptophane; type: in vivo; conditions: Mus musculus, po, dl-5-hydroxytryptophane 200 mg/kg intraperitoneal, read-out: Test A ED 50
Protocol: Test A: potentiation in mice of generalized trembling caused by an intraperitoneal injection (200 mg/kg) of dl-5-hydroxytryptophane, according to the procedure described by Gouret C. and Raynaud G. in J. Pharmacol. (Paris) (1974), 5, 231.

Toxicity (mice) = conditions: mouse, in vivo, po, read-out: Toxicity (mice) LD 50

Row | SMILES | ED50 (ptosis after reserpine) | ED50 [1] | LD50 (Toxicity (mice))
1 | Cc1cccc(N2CC(CO)OC2=O)c1 (centres unmarked) [TOLOXATONE, reference compound] | 50 mg/kg | 60 mg/kg | 
2 | COCC1CN(c2ccc(OCCC(C)=O)cc2)C(=O)O1 (centres unmarked) [compound 238] | 1.1 mg/kg | 1.9 mg/kg | > 1000 mg/kg
3 | COCC1CN(c2ccc(OCCc3cccc(Cl)c3)cc2)C(=O)O1 (centres unmarked) [compound 264] | 3 mg/kg | 2.8 mg/kg | > 1000 mg/kg
4 | COCC1CN(c2ccc(OCCc3cccc(C#N)c3)cc2)C(=O)O1 (centres unmarked) [compound 267] | 1.3 mg/kg | 1.8 mg/kg | > 1000 mg/kg
5 | COCC1CN(c2ccc(-c3ccc(Cl)cc3)cc2)C(=O)O1 (centres unmarked) [compound 269] | 1.2 mg/kg | 1.7 mg/kg | > 1000 mg/kg
6 | COCC1CN(c2ccc(CC(=O)c3cccc(C#N)c3)cc2)C(=O)O1 (centres unmarked) [compound 270] | 0.2 mg/kg | 0.2 mg/kg | > 1000 mg/kg
7 | COCC1CN(c2ccc(CCc3cccc(Cl)c3)cc2)C(=O)O1 (centres unmarked) [compound 271] | 3.8 mg/kg | 4.1 mg/kg | > 1000 mg/kg
8 | COCC1CN(c2ccc(CCc3cccc(C#N)c3)cc2)C(=O)O1 (centres unmarked) [compound 272] | 0.4 mg/kg | 0.5 mg/kg | > 1000 mg/kg
9 | COCC1CN(c2ccc(COc3cccc(Cl)c3)cc2)C(=O)O1 (centres unmarked) [compound 273] | 3.4 mg/kg | 5.9 mg/kg | > 1000 mg/kg
10 | COCC1CN(c2ccc(CC(=O)c3cccc(Cl)c3)cc2)C(=O)O1 (centres unmarked) [compound 274] | 0.9 mg/kg | 1.2 mg/kg | > 1000 mg/kg
11 | COCC1CN(c2ccc(COc3cccc(C#N)c3)cc2)C(=O)O1 (centres unmarked) [compound 275] | 0.3 mg/kg | 0.6 mg/kg | > 1000 mg/kg
12 | COCC1CN(c2ccc(C#Cc3cccc(Cl)c3)cc2)C(=O)O1 (centres unmarked) [compound 277] | 1.7 mg/kg | 1.2 mg/kg | > 1000 mg/kg
13 | COCC1CN(c2ccc(C#CC3CCCCC3)cc2)C(=O)O1 (centres unmarked) [compound 281] | 0.6 mg/kg | 1.3 mg/kg | > 1000 mg/kg
14 | COCC1CN(c2ccc(C#Cc3cccc(C#N)c3)cc2)C(=O)O1 (centres unmarked) [compound 282] | 0.3 mg/kg | 0.3 mg/kg | > 1000 mg/kg
15 | COCC1CN(c2ccc(-c3cccc(C#N)c3)cc2)C(=O)O1 (centres unmarked) [compound 284] | 1.3 mg/kg | 1.2 mg/kg | > 1000 mg/kg
16 | COCC1CN(c2ccc(CCCCCC#N)cc2)C(=O)O1 (centres unmarked) [compound 289] | 0.2 mg/kg | 0.15 mg/kg | > 1000 mg/kg

— patent US4517197A, “-N-substituted phenyl-5-methoxymethyl-2-oxazolidinones and pharmaceutical compositions containing same” (Delalande S.A., priority 1980, dated 1985)
